Source: ChEMBL document CHEMBL1201862, “PubChem BioAssay data set” (2004)
Calls of active or inactive are those of the source.

Tests used:
cells [1] = assay: cells
[2] = molecular target: T1, RNA-binding protein pos-1 (Caenorhabditis elegans, UniProt G5EF15); assay: disruptors of C. elegans POS-1 RNA interaction – biochemical, fluorescence polarization, dose response (AID 1964);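 further: purified POS-1 fused to maltose binding protein made in E. coli; potency of compounds blocking POS-1 binding to fluorescent RNA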
T1 sequence (G5EF15 whole entry): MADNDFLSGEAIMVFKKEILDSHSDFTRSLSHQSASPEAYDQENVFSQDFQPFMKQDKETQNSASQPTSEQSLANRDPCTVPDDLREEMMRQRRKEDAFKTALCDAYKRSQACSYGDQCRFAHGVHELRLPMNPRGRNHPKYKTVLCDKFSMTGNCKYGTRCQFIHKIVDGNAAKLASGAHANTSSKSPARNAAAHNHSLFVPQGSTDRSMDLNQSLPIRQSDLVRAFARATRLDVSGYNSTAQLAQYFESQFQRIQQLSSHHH

[3] = molecular target: T2, Long-chain-fatty-acid--AMP ligase FadD28 (Mycobacterium tuberculosis, UniProt P9WQ59); assay: Fluorescence polarization aasay to screen for inhibitors that compete for the binding of FadD28 to a bisubstrate Measured in Biochemical System Using Plate Reader - 2147-01_Inhibitor_Dose_CherryPick_Activity.; type: functional, Mycobacterium tuberculosis H37Rv
T2 sequence (P9WQ59 whole entry): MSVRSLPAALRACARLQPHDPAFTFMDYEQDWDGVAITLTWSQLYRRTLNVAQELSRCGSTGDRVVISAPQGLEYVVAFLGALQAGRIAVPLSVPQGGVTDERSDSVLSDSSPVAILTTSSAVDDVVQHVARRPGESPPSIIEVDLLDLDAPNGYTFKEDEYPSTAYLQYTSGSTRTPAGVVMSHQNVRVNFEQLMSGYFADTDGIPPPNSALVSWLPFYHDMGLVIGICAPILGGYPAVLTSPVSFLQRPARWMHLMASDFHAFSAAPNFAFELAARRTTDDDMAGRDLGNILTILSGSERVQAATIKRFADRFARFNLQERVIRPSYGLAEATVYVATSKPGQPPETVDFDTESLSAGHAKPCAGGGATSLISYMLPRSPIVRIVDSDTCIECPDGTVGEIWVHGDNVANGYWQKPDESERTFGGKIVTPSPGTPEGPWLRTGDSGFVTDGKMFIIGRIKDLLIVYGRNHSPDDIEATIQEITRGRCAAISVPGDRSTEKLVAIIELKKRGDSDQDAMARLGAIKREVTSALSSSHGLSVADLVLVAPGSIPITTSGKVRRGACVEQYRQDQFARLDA

[4] = mitochondrial function rescue without frataxin homolog – Friedreich's ataxia, plus single-dose screen, dose response (AID 1465); type: functional;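 further: yeast depleted of Yfh1p frataxin homolog grown on glycerol needing respiration; WST-1 tetrazolium dye reduction as measure of cellular dehydrogenase metabolic activity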
Large T antigen = Large T antigen (Simian virus 40, UniProt P03070); type: functional, Betapolyomavirus macacae;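 further: Confirmatory-stage PubChem screen for compounds that inhibit SV40 T antigen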
[5] = HIV-1 AD8 envelope cell-cell fusion blockers – cherry-pick, dose response (AID 652062); type: functional, cell-based;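 further: luciferase signal from cell-cell fusion driven by HIV-1 clade B AD8 Env; potency is for inhibitors of fusion seen as a drop in luminescence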
[6] = Luminescence Cell-Based Dose Response HTS to Identify Inhibitors of 5'UTR Stem-Loop Driven Prion Protein mRNA Translation in H4 Neuroglioblastoma Cells. [Related pubchem assays: 1827 (Project Summary), 1813 (Primary HTS)]; type: functional
[7] = alpha-synuclein stem-loop luciferase translation blockers – H4 neuroglioma cells, luminescence, confirmation (AID 1988); type: functional, cell-based
[8] = Luminescence Cell-Based Dose Confirmation HTS to Identify Inhibitors of Platelet Dense Granule Release. [Related pubchem assays: 1663 (Primary HTS), 1678 (Summary of Project)]; type: functional
[9] = blockers of HIV-1 ZM109 envelope-driven cell-cell fusion – HeLa effector, CEM target cells, luciferase, cherry-pick, dose response (AID 652058); type: functional, cell-based;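 further: luciferase signal from HIV-1 Env mediated cell-cell fusion of effector and target cells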
[10] = Luminescence-based counterscreen assay for KLF5 inhibitors: dose response cell-based high throughput screening assay to identify cytotoxic compounds using the IEC-6 intestinal epithelial cell line. [Related pubchem assays: 1700 (Primary screen.), 1834 (Confirmation screen.), 1858 (Summary AID.), 1905 (Counterscreen.)]; type: functional
[11] = molecular target: T3, Heat shock factor protein 1 (Mus musculus, UniProt P38532); assay: decrease of HSF1-responsive luciferase luminescence – cell-based, NIH3T3, dose retest, confirmation (AID 2382); type: functional;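 further: NIH3T3 fibroblasts with HSF1-driven luciferase reporter stressed by proteasome inhibitor MG132; luminescence from HSF1-driven luciferase expression after 8 hours of MG132 stress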
T3 sequence (P38532 whole entry): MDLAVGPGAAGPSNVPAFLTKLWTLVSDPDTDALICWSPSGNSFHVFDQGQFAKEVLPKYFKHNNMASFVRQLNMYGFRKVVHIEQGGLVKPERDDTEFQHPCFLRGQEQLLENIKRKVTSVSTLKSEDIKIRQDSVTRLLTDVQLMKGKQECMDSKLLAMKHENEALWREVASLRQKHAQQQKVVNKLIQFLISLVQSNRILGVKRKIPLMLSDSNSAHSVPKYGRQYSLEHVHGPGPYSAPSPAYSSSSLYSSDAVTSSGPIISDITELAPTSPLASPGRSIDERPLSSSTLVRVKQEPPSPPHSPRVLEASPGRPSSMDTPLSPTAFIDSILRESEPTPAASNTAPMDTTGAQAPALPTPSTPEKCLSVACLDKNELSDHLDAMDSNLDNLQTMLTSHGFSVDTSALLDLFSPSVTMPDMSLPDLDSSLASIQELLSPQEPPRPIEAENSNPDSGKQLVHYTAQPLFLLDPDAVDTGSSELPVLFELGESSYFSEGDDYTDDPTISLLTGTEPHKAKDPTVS

[12] = molecular target: T4, Luciferin 4-monooxygenase (Photinus pyralis, UniProt P08659); assay: inhibition of purified Photinus pyralis luciferase – biochemical, luminescence, dose response (AID 1891)
[13] = HEK-293T viability loss after treatment – luminescence, T-cell screen hits, cytotoxicity control for TCR NF-kB inhibitor project, dose response (AID 489026); type: functional, cell-based;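 further: cells exposed to compound about 14 hours before the viability readout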
[14] = Fluorescence Cell-Based Dose Response to Identify Inhibitors of Thrombin Receptor-Activating Peptide SFLLRN-Mediated P-Selectin Induction on Platelets. [Related pubchem assays: 1663 (Primary HTS), 1889 (retest at dose ), 1891 (counterscreen), 1678 (Project Summary)]; type: functional
[15] = off-target signal loss in HeLa-CEM21 co-culture – HeLa F-luc CTL cells, cherry-picked, counter-screen for HIV-1 Env fusion inhibitor project, dose response (AID 652040); type: functional, cell-based;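 further: potency for signal decrease marking cytotoxic or nonspecific inhibition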
[16] = luciferase reporter signal suppression in cells – H4 neuroglioma cells, luminescence, dose response (AID 1990); type: functional, cell-based
[17] = molecular target: T4, Luciferin 4-monooxygenase; assay: Counter Screen for Luciferase-based Assay Positives. [Related pubchem assays: 620, 618, 411 ]
HT-1080 = assay: HT1080 cell viability loss – fluorescence readout (AID 620); type: functional, cell-based; conditions: Homo sapiens
[18] = viability loss in CEM21 cells – cell-based, CellTiter-Glo luminescence, cherry-picked, cytotoxicity control for viral fusion inhibitor project, dose response (AID 652042); type: functional;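 further: potency for signal decrease meaning cytotoxicity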
[19] = blockers of HIV-1 envelope-mediated cell-cell fusion – cherry-pick, dose response (AID 652057); type: functional, cell-based
[20] = viability of uninfected HEp-2 cells – cell-based, HTS, cytotoxicity control for RSV inhibitor project, dose response (AID 2410); type: functional; conditions: human respiratory syncytial virus
cells [21] = type: functional, cell-based
[22] = NIH3T3 cell viability loss – ATP luminescence, mouse fibroblasts, counter-screen, dose response (AID 2010); type: functional, cell-based;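 further: cells exposed to compound for about 90 hours before reading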
[23] = Trypanosoma cruzi growth suppression in host cells – NIH3T3 host cells, beta-gal luminescence, confirmation (AID 2044); type: functional, cell-based;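 further: intracellular parasites grown in NIH/3T3 mouse fibroblasts as host cells; luminescent beta-galactosidase reporter signal from transgenic T. cruzi replicating inside host cells; inhibitors lower the luminescence signal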
Streptococcus = assay: GAS UMAA2166 growth inhibition – luminescence, BacTiterGlo, counter-screen for streptokinase expression inhibitor project, dose response (AID 1915); type: functional, organism-based;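 further: potency for reduction of bacterial viability or growth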
[24] = test system: Streptococcus sp. 'group A'; assay: Streptococcus pyogenes SK(-)GAS viability under kanamycin – luminescence, BacTiterGlo, confirmation, counter-screen for streptokinase expression inhibitor project, dose response (AID 1900); type: functional, organism-based
[25] = molecular target: T5, Microphthalmia-associated transcription factor (Homo sapiens, UniProt O75030); assay: reducers of TRPM1 reporter luminescence, concentration series – cell-based, SK-MEL-5, cherry-picked, set 3, MITF inhibitor project, dose response (AID 493073); type: functional;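 further: SK-MEL-5 melanoma cells with luciferase driven by the MITF target TRPM1 promoter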
T5 sequence (O75030 whole entry): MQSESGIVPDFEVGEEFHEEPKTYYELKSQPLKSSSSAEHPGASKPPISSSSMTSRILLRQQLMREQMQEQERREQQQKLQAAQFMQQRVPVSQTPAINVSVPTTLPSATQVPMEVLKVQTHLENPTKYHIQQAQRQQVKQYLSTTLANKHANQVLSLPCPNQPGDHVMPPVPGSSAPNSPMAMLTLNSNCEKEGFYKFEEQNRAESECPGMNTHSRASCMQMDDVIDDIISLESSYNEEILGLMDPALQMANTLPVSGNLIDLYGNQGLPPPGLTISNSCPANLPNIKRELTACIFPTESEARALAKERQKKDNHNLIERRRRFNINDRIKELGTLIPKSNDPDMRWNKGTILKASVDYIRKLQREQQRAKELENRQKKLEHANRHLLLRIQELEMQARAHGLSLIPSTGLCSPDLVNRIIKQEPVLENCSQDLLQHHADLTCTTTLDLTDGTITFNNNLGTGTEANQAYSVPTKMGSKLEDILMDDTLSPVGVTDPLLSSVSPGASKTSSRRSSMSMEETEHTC

cells [26] = type: functional, cell-based; remark: listed apart in the source
INS1 = assay: INS-1E survival protection against cytokine death – cell-based, luminescence, retest, dose response (AID 449756); type: functional; conditions: Rattus norvegicus;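 further: cell death triggered by IL-1 beta plus TNF-alpha plus IFN-gamma mixture; protective hits raise ATP signal compared with cytokine alone wells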
[27] = molecular target: Eukaryotic translation initiation factor 4H (Homo sapiens, UniProt Q15056); assay: eIF4H binding inhibition – biochemical, uHTS, fluorescence polarization, translation initiation inhibitor project, primary screen (AID 2012)
[28] = molecular target: Polyadenylate-binding protein 1 (Homo sapiens, UniProt P11940); assay: blockers of PABP interaction with poly(A) – biochemical, fluorescence polarization, […] (AID 2014)
Estrogen receptor = molecular target: T6, Estrogen receptor (Homo sapiens, UniProt P03372); assay: ERα coactivator recruitment enhancers – biochemical, TR-FRET, ERα LBD, dose response (AID 737)
T6 sequence (P03372 whole entry): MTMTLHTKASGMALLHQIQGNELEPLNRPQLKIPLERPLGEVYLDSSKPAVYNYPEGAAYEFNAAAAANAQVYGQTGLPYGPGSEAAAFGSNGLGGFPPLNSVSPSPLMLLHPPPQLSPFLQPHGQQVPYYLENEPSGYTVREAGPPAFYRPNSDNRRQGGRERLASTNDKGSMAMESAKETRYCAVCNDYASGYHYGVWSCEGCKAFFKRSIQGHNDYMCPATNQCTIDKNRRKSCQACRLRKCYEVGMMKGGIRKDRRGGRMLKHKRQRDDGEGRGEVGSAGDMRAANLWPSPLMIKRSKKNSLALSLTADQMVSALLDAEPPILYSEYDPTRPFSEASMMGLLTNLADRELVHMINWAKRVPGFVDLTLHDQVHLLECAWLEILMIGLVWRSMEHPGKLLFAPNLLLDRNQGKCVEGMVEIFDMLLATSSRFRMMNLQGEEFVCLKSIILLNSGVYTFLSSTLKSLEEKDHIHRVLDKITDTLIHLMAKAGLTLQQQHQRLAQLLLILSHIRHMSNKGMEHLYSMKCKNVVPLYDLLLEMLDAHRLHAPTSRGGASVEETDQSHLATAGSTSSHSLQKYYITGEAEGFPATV

T4 sequence (P08659 whole entry): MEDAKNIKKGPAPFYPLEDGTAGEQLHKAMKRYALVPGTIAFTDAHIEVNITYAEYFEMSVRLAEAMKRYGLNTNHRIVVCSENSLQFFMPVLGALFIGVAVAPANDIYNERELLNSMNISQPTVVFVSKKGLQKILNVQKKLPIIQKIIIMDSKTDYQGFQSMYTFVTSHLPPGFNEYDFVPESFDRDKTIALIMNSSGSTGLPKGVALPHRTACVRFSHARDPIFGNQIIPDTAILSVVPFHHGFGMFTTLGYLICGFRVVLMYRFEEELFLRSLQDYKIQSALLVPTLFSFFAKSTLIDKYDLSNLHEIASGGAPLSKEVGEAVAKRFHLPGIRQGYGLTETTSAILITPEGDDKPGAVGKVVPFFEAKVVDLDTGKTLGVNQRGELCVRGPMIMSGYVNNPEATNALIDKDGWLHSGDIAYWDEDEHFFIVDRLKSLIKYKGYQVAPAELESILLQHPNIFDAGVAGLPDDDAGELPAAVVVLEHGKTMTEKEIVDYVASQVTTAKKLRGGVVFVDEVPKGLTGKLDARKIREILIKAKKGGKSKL
Sequence of Polyadenylate-binding protein 1 (P11940 whole entry, the tested form may be a part): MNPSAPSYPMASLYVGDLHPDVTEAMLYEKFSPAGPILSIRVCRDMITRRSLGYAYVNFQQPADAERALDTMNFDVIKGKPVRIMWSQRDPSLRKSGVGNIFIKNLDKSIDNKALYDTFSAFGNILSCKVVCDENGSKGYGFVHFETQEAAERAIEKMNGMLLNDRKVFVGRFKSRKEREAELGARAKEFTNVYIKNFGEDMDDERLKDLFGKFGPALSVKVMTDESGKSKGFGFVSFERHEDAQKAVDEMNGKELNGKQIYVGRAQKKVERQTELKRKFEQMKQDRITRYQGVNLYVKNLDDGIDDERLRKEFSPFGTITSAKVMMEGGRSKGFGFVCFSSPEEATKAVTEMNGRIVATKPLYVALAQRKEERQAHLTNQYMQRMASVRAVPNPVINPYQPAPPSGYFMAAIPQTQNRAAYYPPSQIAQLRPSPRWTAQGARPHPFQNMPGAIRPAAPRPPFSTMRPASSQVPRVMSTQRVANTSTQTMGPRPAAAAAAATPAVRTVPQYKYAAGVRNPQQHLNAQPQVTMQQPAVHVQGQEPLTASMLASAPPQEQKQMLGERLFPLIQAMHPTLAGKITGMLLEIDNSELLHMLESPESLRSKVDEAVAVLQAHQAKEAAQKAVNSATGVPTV
Sequence of Large T antigen (P03070 whole entry, the tested form may be a part): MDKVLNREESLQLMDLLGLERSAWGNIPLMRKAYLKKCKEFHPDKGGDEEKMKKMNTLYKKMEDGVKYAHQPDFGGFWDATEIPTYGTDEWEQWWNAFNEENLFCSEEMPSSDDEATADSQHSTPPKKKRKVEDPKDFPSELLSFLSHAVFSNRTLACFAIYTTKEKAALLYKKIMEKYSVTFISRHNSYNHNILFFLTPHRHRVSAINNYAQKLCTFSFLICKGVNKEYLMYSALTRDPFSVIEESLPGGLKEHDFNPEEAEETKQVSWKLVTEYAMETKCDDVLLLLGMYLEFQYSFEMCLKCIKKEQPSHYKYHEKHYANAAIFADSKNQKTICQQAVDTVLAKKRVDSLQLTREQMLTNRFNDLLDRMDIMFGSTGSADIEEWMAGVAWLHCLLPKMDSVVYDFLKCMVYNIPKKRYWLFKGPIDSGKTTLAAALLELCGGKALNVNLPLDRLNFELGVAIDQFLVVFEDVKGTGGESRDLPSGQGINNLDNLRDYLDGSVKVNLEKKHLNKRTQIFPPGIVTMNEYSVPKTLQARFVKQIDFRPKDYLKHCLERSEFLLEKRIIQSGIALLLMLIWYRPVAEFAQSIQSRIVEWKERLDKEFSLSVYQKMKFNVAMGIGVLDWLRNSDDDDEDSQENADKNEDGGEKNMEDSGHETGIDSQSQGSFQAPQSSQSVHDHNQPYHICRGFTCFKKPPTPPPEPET

SMILES: O=C(O)c1cc(-c2ccc(/C=C3\NC(=O)N(c4ccc(Cl)cc4)C3=O)o2)ccc1Cl
- IC50 (cells [1]): 23.2 µM (active)
- EC50 [2]: 39.7 µM (active)
- AC50 [3]: 19.5 µM (active)

SMILES: N#C/C(=C\c1ccc(N2CCOCC2)o1)C(=O)Nc1ccc(O)cc1
- EC50 [4]: > 100 µM (active)
- IC50 (Large T antigen): 15.2 µM (active)

SMILES: COC(=O)c1nn(-c2ccc3c(c2)CCN3C(C)=O)cc1O
- AC50 [5]: 6.43 µM (active)
- EC50 [6]: 0.29 µM (active)
- EC50 [7]: 1.78 µM (active)
- EC50 [8]: 1.06 µM (active)
- AC50 [9]: 18.5 µM (active)
- IC50 [10]: > 39.8 µM (not active)
- EC50 [11]: 0.665 µM (active)
- EC50 [12]: 15.8 µM (active)
- IC50 [13]: > 80 µM (inactive)
- EC50 [14]: < 100 µM (not active)
- AC50 [15]: 3.07 µM (active)
- EC50 [16]: 2.45 µM (inconclusive)
- EC50 [17]: > 100 µM (not active)
- EC50 (HT-1080): > 50 µM (not active)
- AC50 [18]: 45.5 µM (active)
- AC50 [19]: 5.72 µM (active)

SMILES: COc1cccc(C(=O)Nc2cc(NC(=O)c3cccs3)ccc2C)c1OC
- CC50 [20]: 38.2 µM (active)
- IC50 (cells [1]): 48.3 µM (active)

SMILES: CCCOc1ccc(-c2nnc(-c3cccs3)o2)cc1
- EC50 [17]: 7.29 µM (active)
- EC50 (HT-1080): > 50 µM (not active)

SMILES: COc1ccc(C(=O)N/N=C/c2cc(Br)ccc2O)cc1OC
- EC50 (cells [21]): 11.3 µM (active)
- EC50 [22]: > 60 µM (not active)
- EC50 [23]: 3.76 µM (active)
- EC50 (Streptococcus): 5.78 µM (active)
- IC50 [10]: 12.2 µM (not active)
- EC50 [24]: 0.959 µM (active)
- AC50 [25]: 4.76 µM (active)
- EC50 (cells [26]): > 350 µM (not active)
- AC50 (INS1): 1.97 µM (active)

SMILES: CCn1/c(=N/C(=O)c2ccc(N3C(=O)CCC3=O)cc2)sc2c(OC)ccc(OC)c21
- IC50 [27]: 14.7 µM (active)
- IC50 [28]: > 100 µM (inactive)
- EC50 (Estrogen receptor): 7.94 µM (active)
